According to patent publication US7645765B2, “Use of moxaverin for treating erectile dysfunction, forms of dementia or diseases associated to an arteriosclerotic occlusion” (Molecular and Clinical Drug Research, priority 2001, dated 2010):
≈ marks a conversion by molar mass, not a printed value. Like-named read-outs stand apart in the source and are kept apart here.

Experiments:
[1] = Solubility of moxaverin hydrochloride in undiluted PEG 200 / PEG 400 at 37° C., pH 7.4 adjustment and dilution with Tyrode's solution; type: physicochemical
Protocol: Moxaverin hydrochloride was dissolved completely, as a pure substance, in increasing mass proportions (see Table 1), in 10 ml commercially available polyethylene glycol having an average molecular weight of 200 and 400, respectively (manufactured by Sigma, PEG 200 and 400, <1% H2O), while stirring constantly, at a temperature of 37° C.
Subsequently, the dissolved moxaverin was converted to an aqueous solution, while stirring constantly, by adding 1×Tyrode's solution with a normal extracellular electrolyte composition.
To determine the pH dependence of the solution behavior of moxaverin hydrochloride, a pH of 7.4 was adjusted in another series of experiments, after complete dissolution in undiluted PEG, by adding NaOH.

[2] = for pH: 26.6° C.
Protocol: Moxaverin hydrochloride was dissolved completely, as a pure substance, in increasing mass proportions (see Table 1), […], respectively (manufactured by Sigma, PEG 200 and 400, <1% H2O), while stirring constantly, […]

[3] = Solubility in water / aqueous solution; type: physicochemical
Protocol: Also, this low concentration of moxaverin would be difficult to compensate by means of the administration of larger volumes. In addition, the stability of active substances in highly concentrated solutions is generally greater than in solutions having a low concentration. In the form of the free base, moxaverin is practically insoluble in water (<1 mg/ml).

[4] = Direct dissolving of moxaverin HCl in 5-10% diluted PEG; type: physicochemical; settings: 5-10% PEG 400 or PEG 200 in H2O or Tyrode's solution, 37° C.
Protocol: In comparison, an attempt was made to dissolve moxaverin HCl in 5-10% PEG diluted with H2O and Tyrode's solution, respectively. (In other words, analogous to the series of experiments shown in the table, 15 to 40 mg moxaverin HCl were added to 10 ml 10% PEG 400, or 7.5 to 20 mg moxaverin HCl were added to 10 ml 5% PEG 400, and stirred at 37° C.) However, directly dissolving the pure substance in diluted PEG was not possible either in diluted PEG 400 or in diluted PEG 200.

[5] = Activity of moxaverin HCl dissolved in pH-neutral PEG solution; settings: pH-neutral diluted PEG solution
[6] = cited from earlier work
[7] = Stability of pH-neutral aqueous PEG solutions of moxaverin; type: physicochemical
[8] = tested on: patients having erectile dysfunction; experiment: Patient study: intracavernous injection of aqueous solutions of moxaverin; type: in vivo, human
Protocol: Twenty patients having a completely clarified genesis of erectile dysfunction were given intracavernous injections (injection therapy of erectile tissue) of aqueous solutions of moxaverin. In this connection, 1 ml of an injection solution containing 1 to 10 mg moxaverin hydrochloride per ml end volume, in Tyrode's buffer, at a pH=7.4 and an end concentration of 2.5% PEG 400 (in the case of 1 mg moxaverin HCl/ml) up to 25% PEG 400 (in the case of 10 mg moxaverin HCl/ml) were administered per individual injection.

smooth muscle cells = settings: more effective than papaverin; cited from earlier work
[9] = after oral administration; cited from earlier work
[10] = 150 mg in 10 ml PEG 200, 37° C.
[11] = 150 mg in 10 ml PEG 400, 37° C.
[12] = 200 mg in 10 ml PEG 200, 37° C.
[13] = 200 mg in 10 ml PEG 400, 37° C.
[14] = 250 mg in 10 ml PEG 200, 37° C.
[15] = 250 mg in 10 ml PEG 400, 37° C.
[16] = 300 mg in 10 ml PEG 200, 37° C.
[17] = 300 mg in 10 ml PEG 400, 37° C.
[18] = 350 mg in 10 ml PEG 200, 37° C.
[19] = 350 mg in 10 ml PEG 400, 37° C.
[20] = 400 mg in 10 ml PEG 200, 37° C.
[21] = 400 mg in 10 ml PEG 400, 37° C.

Compound: CCc1cc2cc(OC)c(OC)cc2c(Cc2ccccc2)n1.Cl [moxaverin hydrochloride]
- concentration at which moxaverin HCl precipitated after neutralization ([1]; PEG 200, pH 7.4): ≥ 35 mg/mL
- moxaverin concentration achieved in undiluted polyethylene glycol 400 ([1]; undiluted PEG 400, 37° C.): up to 40 mg/ml
- Solubility [2]: Dissolved
- maximum brought into solution in EtOH [2]: ≤ 200 mg/mL
- pH ([2]; 10 mg/ml in ethanol 90%): 3.49
- pH ([2]; 20 mg/ml in ethanol 90%): 3.36
- pH ([2]; 30 mg/ml in ethanol 90%): 3.30
- pH ([2]; 40 mg/ml in ethanol 90%): 3.19
- pH ([2]; 50 mg/ml in ethanol 90%): 3.13
- pH ([2]; 60 mg/ml in ethanol 90%): 3.11
- pH ([2]; 100 mg/ml in ethanol 90%): 3.00
- pH ([2]; 200 mg/ml in ethanol 90%): 2.96
- maximum brought into solution in H2O [3]: < 1 mg/mL
- directly dissolving the pure substance in diluted PEG [4]: not possible
- activity of the dissolved moxaverin HCl [5]: active
- maximum concentration of moxaverin HCl in aqueous solution ([6]; aqueous solutions having a physiological pH): ≤ 1 mg/mL

Compound: CCc1cc2cc(OC)c(OC)cc2c(Cc2ccccc2)n1 [moxaverin, 1-benzyl-3-ethyl-6,7-dimethoxyisoquinoline]
- Solubility at pH 7.4 [1, 10]: Yes
- pH [1, 10]: 3.05
- Solubility at pH 7.4 [1, 11]: Yes
- pH [1, 11]: 2.53
- Solubility at pH 7.4 [1, 12]: Yes
- pH [1, 12]: 3.06
- Solubility at pH 7.4 [1, 13]: Yes
- pH [1, 13]: 2.33
- Solubility at pH 7.4 [1, 14]: Yes
- pH [1, 14]: 2.97
- Solubility at pH 7.4 [1, 15]: Yes
- pH [1, 15]: 2.27
- Solubility at pH 7.4 [1, 16]: Yes
- pH [1, 16]: 2.95
- Solubility at pH 7.4 [1, 17]: Yes
- pH [1, 17]: 2.30
- Solubility at pH 7.4 [1, 18]: No
- pH [1, 18]: 2.87
- Solubility at pH 7.4 [1, 19]: Yes
- pH [1, 19]: 2.22
- Solubility at pH 7.4 [1, 20]: No
- pH [1, 20]: 2.75
- Solubility at pH 7.4 [1, 21]: Yes
- pH [1, 21]: 2.12
- solution behaviour after pH neutralization ([1]; PEG 400, high concentrations, pH 7.4): remained in solution
- maximum moxaverin concentration in the finished aqueous medicinal solution ([1]; PEG as solubilizer, upper limit 30% PEG): approximately 12 mg/ml
- behaviour on dilution with 1×Tyrode's solution ([1]; dissolved in PEG, diluted as desired): without the dissolved moxaverin precipitating
- precipitation on dilution of pH-neutral solutions ([1]; low PEG concentrations of 5% and less): did not precipitate
- Solubility ([1]; undiluted polyethylene glycol (PEG), 37 °C, organic solvent or mixture, thermodynamic from solid, undiluted PEG, read-out: maximum solubility in undiluted PEG): ~40 mg/mL (≈ 130 mM)
- time the solutions remained stable without precipitation [7]: more than six months
- pain in connection with the injection ([8]; intracavernous injection): No pain was observed
- side effects such as priapism ([8]; intracavernous injection): not observed
- cases with sufficiently strong penile erection ([8]; intracavernous, 1 to 10 mg moxaverin hydrochloride in 1 ml, 20 patients): more than 90%
- degree of erection E ([8]; scale from 0 to 5, intracavernous injection): 4-5
- solubility in water ([6]; free base, water): < 1 mg/mL
- effectiveness as musculotropic spasmolytic relative to parent substance papaverin (smooth muscle cells): 2.5 ×
- toxicity relative to papaverin [9]: ten times less toxic
